Experiments:
Assay in all cases: relative viability (nuclei count vs DMSO), 5 days (fraction); higher = more cells survive
Cediranib + Alpelisib = compound: COc1cc2c(Oc3ccc4[nH]c(C)cc4c3F)ncnc2cc1OCCCN1CCCC1 [Cediranib] + Cc1nc(NC(=O)N2CCC[C@H]2C(N)=O)sc1-c1ccnc(C(C)(C)C(F)(F)F)c1 [Alpelisib] (partner 2 µM)
Procedure, shortened: (§1)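 Cells from lung cancer lines were seeded into 1536-well plates and, one day later, dosed by pin tool. Treatments were either a single drug or a fixed dose of an anchor drug with five library-drug doses (not always all listed) in √10 steps. After 5 days, nuclei were stained in a one-step fixation (final 0.05% Triton X-100, 1% formaldehyde, 1 ug/ml Hoechst) and counted on 4× images, and relative viability is the treated-to-vehicle nuclei ratio, as the median of duplicate plates.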

Cediranib + Decitabine = compound: COc1cc2c(Oc3ccc4[nH]c(C)cc4c3F)ncnc2cc1OCCCN1CCCC1 [Cediranib] + Nc1ncn([C@H]2C[C@H](O)[C@@H](CO)O2)c(=O)n1 [Decitabine] (partner 2 µM)
Procedure, shortened: as §1

Halofuginone + Dasatinib = compound: O=C(C[C@H]1NCCC[C@@H]1O)Cn1cnc2cc(Br)c(Cl)cc2c1=O (racemic) [Halofuginone] + Cc1nc(Nc2ncc(C(=O)Nc3c(C)cccc3Cl)s2)cc(N2CCN(CCO)CC2)n1 [Dasatinib] (partner 0.075 µM)
Procedure, shortened: as §1

Cediranib + Palbociclib = compound: COc1cc2c(Oc3ccc4[nH]c(C)cc4c3F)ncnc2cc1OCCCN1CCCC1 [Cediranib] + CC(=O)c1c(C)c2cnc(Nc3ccc(N4CCNCC4)cn3)nc2n(C2CCCC2)c1=O [Palbociclib] (partner 0.5 µM)
Procedure, shortened: as §1

In the case of UMC-11, the relative viability (Cediranib + Alpelisib; first compound 0.04 µM) is reported as 1.06, the relative viability (Cediranib + Alpelisib; first compound 0.1265 µM) is reported as 0.879 and the relative viability (Cediranib + Alpelisib; first compound 0.4 µM) is reported as 0.934. For the same cell line, the relative viability (Cediranib + Alpelisib; first compound 1.265 µM) was 0.984, the relative viability (Cediranib + Alpelisib; first compound 4 µM) was 0.922 and the relative viability (Cediranib + Decitabine; first compound 0.04 µM) was 0.617. It also gave a relative viability (Cediranib + Decitabine; first compound 0.1265 µM) of 0.528, a relative viability (Cediranib + Decitabine; first compound 0.4 µM) of 0.557 and a relative viability (Cediranib + Decitabine; first compound 1.265 µM) of 0.555. For the same cell line, the relative viability (Cediranib + Decitabine; first compound 4 µM) was 0.633, the relative viability (Halofuginone + Dasatinib; first compound 0.001 µM) was 0.472 and the relative viability (Halofuginone + Dasatinib; first compound 0.003162 µM) was 0.427. For the same cell line, the relative viability (Halofuginone + Dasatinib; first compound 0.01 µM) was 0.407, the relative viability (Halofuginone + Dasatinib; first compound 0.03162 µM) was 0.357 and the relative viability (Halofuginone + Dasatinib; first compound 0.1 µM) was 0.293. For the same cell line, the relative viability (Cediranib + Palbociclib; first compound 0.04 µM) was 0.345, the relative viability (Cediranib + Palbociclib; first compound 0.1265 µM) was 0.341 and the relative viability (Cediranib + Palbociclib; first compound 0.4 µM) was 0.315. It also gave a relative viability (Cediranib + Palbociclib; first compound 1.265 µM) of 0.328 and a relative viability (Cediranib + Palbociclib; first compound 4 µM) of 0.359.
